Experiments:
[1] = tested on: gelatinase A and B in the CSF from animals with EAE; experiment: In vitro inhibition of gelatinase activity in CSF (SDS/PAGE zymography); type: biochemical, mice
Experimental: In vitro inhibition of gelatinase activity. Gelatinase activity in a pooled CSF sample from animals with clinical signs of EAE (grade 2-3 for 4-5 d) was determined by SDS/PAGE zymography. CSF was applied without prior denaturation to a single-well 7.5% (wt/vol) polyacrylamide gel containing 0.1% (wt/vol) SDS to which 0.1% (wt/vol) tissue culture grade gelatin (Sigma Chemical Co., St. Louis, Mo.) was added and copolymerized. […] The gel (7 cm×10 cm×0.75 mm) was run for approximately 2 h at 20 mA. After electrophoresis the gel was washed (washing buffer: 50 mM Tris-HCL, 10 mM CaCl2, 0.02% (wt/vol) NaN3, 2.5% (vol/vol) Triton X-100, pH 7.5) to remove the SDS and sliced into strips. The resulting strips were incubated separately at 37° C. during 24 h (same buffer as for the washing, containing only 1% [vol/vol] Triton X-100) for development of the enzyme activity, stained with Coomassie brilliant blue R-250 and destained in methanol/acetic acid. Gelatinase activity was detected as unstained bands on a blue background. To assess the effect of protease inhibitors on the gelatinase activity present in the CSF, metalloprotease inhibitors (dissolved in DMSO) were added to the incubation buffer. GM 6001 was used at final concentrations from 0.1 to 33 μM; 1,10-phenanthroline (Sigma Chemical Co.) was used as a positive control at 2.5 mM, and the noninhibitor lane was incubated in 0.5% (vol/vol) DMSO.

[2] = tested on: EAE in SJL/J mice; experiment: Clinical scoring of EAE; type: in vivo; design: key to Change in average cumulative score During treatment / Change in average cumulative score After treatment: change in cumulative EAE grade; 0 = no signs, 5 = death
Experimental: EAE induction, Female SJL/J mice (Jackson Laboratory, Bar Harbor, Me.) were used at 5-7 week of age. […] PLP peptide 139-151 was prepared by continuous flow solid phase synthesis according to the sequence (SEQ ID NO 1 ) HCLGKWLGHPDKF by the Protein and Nucleic Acid Facility, Beckman Center, Stanford, Calif. Peptide purity was examined by HPLC analysis and peptide identity was confirmed by amino-acid composition analysis.
EAE was scored clinically as follows: no neurological signs=grade 0, weak tail=grade 1, wobbly walk or limb paresis=grade 2, limb paralysis=grade 3, inability to move=grade 4, death=grade 5. Easy access to food and water was provided and animals with grade 3 or 4 received daily parenteral fluid.
[…] The same volume of vehicle was used as a control treatment. Animals were treated daily either from the day of disease induction for 20 d or from the onset of clinical signs for 10 d (randomized for the different treatment groups).

[3] = In vivo inhibitor kinetics (GM 6001 concentration in CSF); design: species or system mice; conditions: for concentration at 3 h: for at least 3 h
Experimental: In vivo inhibitor kinetics. Normal noninduced animals or animals with clinical signs of EAE for 2 d were given a single intraperitoneal injection of 4 mg GM 6001 and euthanized by CO2 inhalation after various time intervals. CSF was taken by suboccipital puncture. Pooled CSF from five animals per time point was frozen immediately at -70° C. GM 6001 concentrations were determined by reversed-phase HPLC by Bay Bioanalytical Laboratories, Richmond, Calif. was diluted into 20% acetonitrile in water and chromatographed on a C-18 reversed-phase column with fluorescence detection. Linearity was determined by spiking blank CSF with increasing amounts of GM 6001. The amount of GM 6001 in CSF samples was calculated based on recovery of GM 6001 and the internal standard in spiked samples. The lower limit for quantification of GM 6001 in the CSF samples was 60 ng/rnl.

[4] = tested on: EAE in SJL/J mice; experiment: Histopathology of brain and spinal cord (inflammation, demyelination); type: in vivo; conditions: for Demyelination Brain + SC / Inflammation Brain / Inflammation Spinal Cord: 1 × 1.33 mg/d i.p.; for Demyelination Brain + SC: demyelination score; for Inflammation Brain / Inflammation Spinal Cord: total inflammatory score
Experimental: Sections were stained with hematoxylin and eosin, Kluver-Barrera and Giemsa stain. Histopathology was assessed as follows. Individual inflammatory lesions were scored as 1=perivascular inflammatory cuff≤three cells thick, 2=>three cells thick. 3=parenchymal infiltrate. The total inflammatory score was then calculated by adding all the scores for individual lesions from all the sections for a given sample. The demyelination score was calculated the same way as inflammatory score, with 1=demyelinated rim around infiltrate, 2=demyelination extending into noninfiltrated tissue.

[5] = tested on: EAE in SJL/J mice; experiment: Blood-brain barrier permeability (Evans blue); type: in vivo
Experimental: Mice were injected intravenously with 1% (wt/vol) Evans blue (Fisher Scientific Co., Fair Lawn, N.J.) in PBS at a dosage of 4 μl/g body weight. After 1 h the animals were euthanized by CO2 inhalation and perfused with PBS via the left ventricle. Brain and spinal cord were dissected and cut longitudinally. Half of the CNS was used for histopathological evaluation. The other half was weighed and tissue samples were then extracted for 3 d in formamide (5 μl/mg tissue) and the extracts centrifuged for 5 min at 500 g. Evans blue concentration in the extracts was determined by measuring the absorbance at 650 nm. The blood-brain barrier permeability index was calculated by dividing the value for each sample by the corresponding (brain or spinal cord) mean value of four normal noninduced animals.

[6] = biological target: gelatinase B; conditions: cited from earlier work
[7] = Experiment 1, from disease induction for 20 d, 2X/d 2.00 mg i.p.
[8] = Experiment 1, from onset of clinical signs for 10 d, 2X/d 2.00 mg i.p.
[9] = Experiment 2, from disease induction for 20 d, 1X/d 0.13 mg i.p.
[10] = Experiment 2, from disease induction for 20 d, 1X/d 0.40 mg i.p.
[11] = Experiment 2, from disease induction for 20 d, 1X/d 1.33 mg i.p.
[12] = Experiment 2, from disease induction for 20 d, 1X/d 4.00 mg i.p.
[13] = Experiment 2, from onset of clinical signs for 10 d, 1X/d 0.13 mg i.p.
[14] = Experiment 2, from onset of clinical signs for 10 d, 1X/d 0.40 mg i.p.
[15] = Experiment 2, from onset of clinical signs for 10 d, 1X/d 1.33 mg i.p.
[16] = Experiment 2, from onset of clinical signs for 10 d, 1X/d 4.00 mg i.p.
[17] = animals with EAE, single intraperitoneal dose of 4 mg
[18] = 3 days of treatment from onset of clinical signs
[19] = 10 days of treatment from onset of clinical signs

Structure (SMILES): c1cnc2c(c1)ccc1cccnc12 [phenanthroline, 1,10-phenanthroline, reference compound]
- inhibition of gelatinase activity in CSF ([1]; phenanthroline 2.5 mM, positive control): served as an inhibitory control

Structure (SMILES): CNC(=O)[C@H](Cc1c[nH]c2ccccc12)NC(=O)[C@@H](CC(=O)NO)CC(C)C [GM 6001, N-[2(R)-2-(hydroxamidocarbonylmethyl)-4-methylpentanoyl]-L-tryptophan methylamide]
- inhibition of gelatinase A compared with gelatinase B in CSF ([1]; CSF from animals with EAE): equally well inhibited
- inhibition of gelatinase activity in CSF ([1]; GM 6001 at 1 μM to 33 μM, pooled CSF from animals with EAE, zymography): completely inhibited all gelatinase activity
- inhibition of gelatinase activity in CSF ([1]; GM 6001 at 0.1 and 0.33 μM, pooled CSF from animals with EAE, zymography): partial inhibition
- efficacy at low dose when given from disease induction ([2]; 0.13 mg/d once daily, P<0.05 (4 and 1.33 mg/d P<0.005)): still effective
- efficacy of single daily dose compared with 2×2 mg/d ([2]; 4 mg/d once daily i.p., both treatment schedules): comparable efficacy
- Change in average cumulative score After treatment [2, 7]: 9.9 ± 2.17
- Change in average cumulative score During treatment [2, 7]: 7.0 ± 2.57
- Change in average cumulative score After treatment [2, 8]: -7.2 ± 2.69
- Change in average cumulative score During treatment [2, 8]: -6.5 ± 2.08
- Change in average cumulative score After treatment [2, 9]: 18.0 ± 9.82
- Change in average cumulative score During treatment [2, 9]: 7.7 ± 3.09
- Change in average cumulative score After treatment [2, 10]: 23.9 ± 4.96
- Change in average cumulative score During treatment [2, 10]: 11.3 ± 0.94
- Change in average cumulative score After treatment [2, 11]: 12.0 ± 3.83
- Change in average cumulative score During treatment [2, 11]: 3.4 ± 1.77
- Change in average cumulative score After treatment [2, 12]: 22.2 ± 4.61
- Change in average cumulative score During treatment [2, 12]: 2.4 ± 1.16
- Change in average cumulative score After treatment [2, 13]: -10.6 ± 5.67
- Change in average cumulative score During treatment [2, 13]: 2.0 ± 1.92
- Change in average cumulative score After treatment [2, 14]: -7.9 ± 4.44
- Change in average cumulative score During treatment [2, 14]: -0.3 ± 2.03
- Change in average cumulative score After treatment [2, 15]: -15.0 ± 5.79
- Change in average cumulative score During treatment [2, 15]: -4.1 ± 1.81
- Change in average cumulative score After treatment [2, 16]: -7.1 ± 7.86
- Change in average cumulative score During treatment [2, 16]: -4.3 ± 2.69
- clinical severity of the disease compared with the vehicle-treated group ([2]; FIG. 1, from disease induction for 20 d, 2×2 mg/d i.p., 10 animals per group): significantly reduced
- disease score, treatment of clinical relapse ([2]; FIG. 3, 1×4 mg/d for 10 days from onset of clinical relapse, nine animals): statistically significant difference
- recovery from the drop in body weight associated with the onset of EAE ([2]; experiment 2): recovered faster
- clinical scores after start of treatment ([2]; from onset of clinical signs for 10 d, 2×2 mg/d, P<0.005 vs vehicle up to two days after treatment): decreased the day after the start of treatment
- animals returned to score 0 (clinically normal) within 12 d following the onset of clinical signs ([2]; from onset of clinical signs for 10 d, 2×2 mg/d, vehicle 3 out of 10): 8 out of 10
- animals that returned to score 0 and had a clinical disease relapse during the follow-up period ([2]; of the 8 recovered animals, 2×2 mg/d from onset for 10 d, vehicle all 3): 7 animals
- reduction of disease severity when treated from disease onset ([2]; once daily 4, 1.33, 0.40, 0.13 mg/d, P<0.05, FIG. 2): only 4 and 1.33 mg/d were significantly effective
- duration of detectable levels in the CSF [3, 17]: at least 4 h
- time after injection at which detectable levels in the CSF start [3, 17]: 30 min
- concentration at 8 h ([3]; mouse, csf, ip, animals with EAE, single i.p. dose of 4 mg, after 8 hours): 100 ng/mL
- concentration at 16 h ([3]; mouse, csf, ip, animals with EAE, single i.p. dose of 4 mg, after 16 hours): < 60 ng/mL
- concentration at 3 h ([3]; mouse, csf, ip, animals with EAE, single i.p. dose of 4 mg): 100 to 200 ng/mL
- concentration at 3 h ([3]; mouse, csf, ip, animals with EAE, single i.p. dose of 4 mg, converted from ng/ml): 250 to 500 nM
- concentration in the CSF ([3]; normal noninduced animals, single i.p. dose of 4 mg): never rose above the detection limit
- Demyelination Brain + SC [4, 18]: 3.7 ± 0.88
- Inflammation Brain [4, 18]: 31.7 ± 5.17
- Inflammation Spinal Cord [4, 18]: 14.7 ± 1.67
- Demyelination Brain + SC [4, 19]: 2.3 ± 0.63
- Inflammation Brain [4, 19]: 21.0 ± 3.14
- Inflammation Spinal Cord [4, 19]: 15.0 ± 3.24
- inflammatory and demyelination scores compared with vehicle ([4]; after 3 and 10 d of treatment, 1×1.33 mg/d from onset, differences not statistically significant): lower after 3 and 10 d of treatment with GM 6001 in all but one group
- Blood Brain Barrier Index Spinal Cord ([5]; 3 days of treatment from onset of clinical signs, 1 × 1.33 mg/d i.p.): 0.7 ± 0.12
- Blood Brain Barrier Index Brain ([5]; 3 days of treatment from onset of clinical signs, 1 × 1.33 mg/d i.p., ratio of permeability for Evan's blue): 1.1 ± 0.16
- Blood Brain Barrier Index Spinal Cord ([5]; 10 days of treatment from onset of clinical signs, 1 × 1.33 mg/d i.p.): 1.1 ± 0.11
- blood-brain barrier index ([5]; after 10 d of disease, 1×1.33 mg/d from onset, vehicle significantly elevated, P<0.05): normal
- Ki [6]: 0.2 nM
